According to ChEMBL document CHEMBL1201862, “PubChem BioAssay data set” (2004):
Active and inactive are the calls of the source.

Tests used:
[1] = target: Potassium voltage-gated channel subfamily KQT member 2 (Rattus norvegicus, UniProt O88943); assay: potentiation of rat KCNQ2 current – cell-based, retigabine-insensitive compounds, dose response (AID 2654); assay type: functional
cells [2] = assay type: functional, cell-based
[3] = target: T1, Trace amine-associated receptor 1 (Homo sapiens, UniProt Q96RJ0); assay: Fluorescence-based cell-based high throughput dose response assay to identify agonists of the human trace amine associated receptor 1 (TAAR1).; assay type: functional
T1 sequence (Q96RJ0 whole entry): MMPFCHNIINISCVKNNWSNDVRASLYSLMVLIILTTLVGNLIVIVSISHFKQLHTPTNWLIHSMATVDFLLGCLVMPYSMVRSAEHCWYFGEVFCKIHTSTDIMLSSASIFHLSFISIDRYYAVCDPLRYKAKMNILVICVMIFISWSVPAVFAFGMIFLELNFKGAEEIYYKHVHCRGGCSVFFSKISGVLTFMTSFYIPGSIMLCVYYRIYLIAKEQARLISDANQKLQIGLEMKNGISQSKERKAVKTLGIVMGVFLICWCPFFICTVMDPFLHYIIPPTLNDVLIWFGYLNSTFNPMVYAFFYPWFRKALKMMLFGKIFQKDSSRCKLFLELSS

[4] = target: T1, Trace amine-associated receptor 1; assay: Counterscreen for agonists of the human trace amine associated receptor 1 (hTAAR1): Fluorescence-based cell-based high throughput dose response assay to identify hTAAR1 agonist that also desensitize TAAR1 receptor response.; assay type: functional
cells [5] = assay type: functional, cell-based; remark: listed apart in the source
[6] = target: T2, Neuropeptide Y receptor type 2 (Homo sapiens, UniProt P49146); assay: Fluorescence-based counterscreen for agonists of NPY-Y1: cell-based high-throughput dose response assay for agonists of NPY-Y2.; assay type: functional
T2 sequence (P49146 whole entry): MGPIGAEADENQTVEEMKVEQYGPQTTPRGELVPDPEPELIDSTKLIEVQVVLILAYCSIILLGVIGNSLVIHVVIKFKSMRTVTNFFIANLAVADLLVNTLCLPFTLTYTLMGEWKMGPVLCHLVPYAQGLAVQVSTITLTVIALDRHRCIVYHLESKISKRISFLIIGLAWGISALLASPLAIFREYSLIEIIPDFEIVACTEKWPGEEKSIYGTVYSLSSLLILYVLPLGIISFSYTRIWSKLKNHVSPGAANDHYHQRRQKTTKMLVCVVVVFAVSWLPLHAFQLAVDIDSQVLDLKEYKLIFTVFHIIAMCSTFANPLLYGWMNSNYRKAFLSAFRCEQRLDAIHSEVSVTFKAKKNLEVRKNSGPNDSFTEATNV

HEK293 [7] = assay: Fluorescence-based counterscreen for potentiators or agonists of NPY-Y1: cell-based high-throughput dose response assay for inhibitors of cyclic nucleotide gated ion channel (CNGC) activity. In this assay, the parental HEK293 cell line transfected with a cyclic-nucleotide gated ion channel (CNGC)-based cAMP sensor is used to measure inhibition of isoproterenol-induced CNGC …; assay type: functional; conditions: Homo sapiens
[8] = target: T3, Neuropeptide Y receptor type 1 (Homo sapiens, UniProt P25929); assay: Fluorescence-based dose response cell-based high-throughput screening assay for agonists of NPY-Y1. [Related pubchem assays: 1697 (Screening assay (NPY-Y1 agonists).), 1359 (Screening assay (NPY-Y2 potentiators or agonists).), 1304 (Screening assay (NPY-Y1 potentiators or agonists).), 1704 (Screening assay (CNGC inhibitors).), 1791 (Summary AID.)]; assay type: functional
T3 sequence (P25929 whole entry): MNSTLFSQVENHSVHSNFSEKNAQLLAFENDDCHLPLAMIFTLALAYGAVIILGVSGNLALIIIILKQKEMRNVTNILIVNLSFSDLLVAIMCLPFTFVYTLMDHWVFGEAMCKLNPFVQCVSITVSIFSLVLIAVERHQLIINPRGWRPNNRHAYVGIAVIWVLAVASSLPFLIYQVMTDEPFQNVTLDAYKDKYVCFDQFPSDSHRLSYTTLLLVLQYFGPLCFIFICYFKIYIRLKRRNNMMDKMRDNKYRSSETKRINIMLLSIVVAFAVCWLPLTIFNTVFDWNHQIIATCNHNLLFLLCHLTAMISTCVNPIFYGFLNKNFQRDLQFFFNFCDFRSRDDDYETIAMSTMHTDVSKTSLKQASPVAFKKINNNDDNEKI

[9] = system: Streptococcus sp. 'group A'; assay: Streptococcus pyogenes SK(-)GAS viability under kanamycin – luminescence, BacTiterGlo, confirmation, counter-screen for streptokinase expression inhibitor project, dose response (AID 1900); assay type: functional, organism-based
[10] = Luminescence Cell-Based Dose Confirmation HTS to Identify Inhibitors of Platelet Dense Granule Release. [Related pubchem assays: 1663 (Primary HTS), 1678 (Summary of Project)]; assay type: functional
[11] = Fluorescence Cell-Based Dose Response to Identify Inhibitors of Thrombin Receptor-Activating Peptide SFLLRN-Mediated P-Selectin Induction on Platelets. [Related pubchem assays: 1663 (Primary HTS), 1889 (retest at dose ), 1891 (counterscreen), 1678 (Project Summary)]; assay type: functional
Streptococcus = assay: GAS UMAA2166 growth inhibition – luminescence, BacTiterGlo, counter-screen for streptokinase expression inhibitor project, dose response (AID 1915); assay type: functional, organism-based;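 note: potency for reduction of bacterial viability or growth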
HeLa = assay: viability loss in HeLa cells – cell-based, 24 h, cherry-picked samples, cytotoxicity control, dose response (AID 504726); assay type: functional; conditions: Homo sapiens;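 note: potency for cytotoxicity as loss of luminescence signal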
HEK293 [12] = assay: Fluorescence-based counterscreen for potentiators or agonists of NPY-Y2: cell-based high-throughput dose response assay to identify inhibitors of cyclic nucleotide gated ion channel (CNGC) activity. In this assay, the parental HEK293 cell line transfected with a cyclic-nucleotide gated ion channel (CNGC)-based cAMP sensor is used to measure inhibition of isoproterenol-induced CNGC activity by test compound.; assay type: functional; conditions: Homo sapiens
[13] = target: T4, Eukaryotic translation initiation factor 2-alpha kinase 3 (Homo sapiens, UniProt Q9NZJ5); assay: Dose response cell-based high-throughput screening assay to measure PERK inhibition. [Related pubchem assays: 1416 ]; assay type: functional
T4 sequence (Q9NZJ5 whole entry): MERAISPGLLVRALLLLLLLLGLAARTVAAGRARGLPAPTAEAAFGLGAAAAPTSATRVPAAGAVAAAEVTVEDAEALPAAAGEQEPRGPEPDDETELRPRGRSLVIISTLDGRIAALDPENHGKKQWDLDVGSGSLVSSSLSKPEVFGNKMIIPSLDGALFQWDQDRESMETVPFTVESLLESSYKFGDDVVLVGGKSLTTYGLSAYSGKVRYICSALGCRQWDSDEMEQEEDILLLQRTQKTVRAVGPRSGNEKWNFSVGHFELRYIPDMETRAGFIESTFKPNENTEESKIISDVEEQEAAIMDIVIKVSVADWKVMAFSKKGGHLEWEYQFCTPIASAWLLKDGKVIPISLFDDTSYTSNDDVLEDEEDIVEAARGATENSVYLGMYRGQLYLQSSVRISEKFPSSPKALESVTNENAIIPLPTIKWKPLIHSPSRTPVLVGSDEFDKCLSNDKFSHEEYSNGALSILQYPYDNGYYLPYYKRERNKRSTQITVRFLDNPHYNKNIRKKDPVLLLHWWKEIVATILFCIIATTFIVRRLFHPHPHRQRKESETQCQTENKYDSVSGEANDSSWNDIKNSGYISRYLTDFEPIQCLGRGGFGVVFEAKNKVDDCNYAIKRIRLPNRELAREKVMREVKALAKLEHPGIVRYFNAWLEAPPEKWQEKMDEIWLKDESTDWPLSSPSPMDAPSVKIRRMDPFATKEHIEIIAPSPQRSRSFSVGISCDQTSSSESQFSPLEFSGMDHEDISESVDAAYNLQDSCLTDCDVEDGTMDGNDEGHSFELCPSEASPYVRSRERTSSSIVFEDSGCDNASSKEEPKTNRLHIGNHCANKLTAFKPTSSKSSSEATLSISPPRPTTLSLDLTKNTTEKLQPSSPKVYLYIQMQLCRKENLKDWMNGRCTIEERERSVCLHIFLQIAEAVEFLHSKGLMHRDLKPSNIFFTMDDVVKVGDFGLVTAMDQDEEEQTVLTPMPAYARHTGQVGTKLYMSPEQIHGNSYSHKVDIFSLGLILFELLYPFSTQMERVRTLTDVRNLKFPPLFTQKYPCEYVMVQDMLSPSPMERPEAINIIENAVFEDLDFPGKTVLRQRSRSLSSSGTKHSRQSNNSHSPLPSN

[14] = target: T2, Neuropeptide Y receptor type 2; assay: Fluorescence-based cell-based high-throughput dose response assay for agonists of NPY-Y2. [Related pubchem assays: 1703 (Screening assay (CNGC inhibitors).), 1359 (Screening assay (NPY-Y2 potentiators or agonists).), 1304 (Screening assay (NPY-Y1 potentiators or agonists).), 1710 (Screening assay (NPY-Y2 agonists).), 1791 (Summary AID.)]; assay type: functional
[15] = target: T4, Eukaryotic translation initiation factor 2-alpha kinase 3; assay: Counterscreen assay for PERK inhibitors: Dose response cell-based high throughput screening assay to measure inhibition of PERK at 6 hours. [Related pubchem assays: 1522, 1416 ]; assay type: functional
[16] = target: T3, Neuropeptide Y receptor type 1; assay: Fluorescence-based counterscreen for agonists of NPY-Y2: cell-based high-throughput dose response assay for agonists of NPY-Y1.; assay type: functional
[17] = target: Dual specificity protein phosphatase 3 (Homo sapiens, UniProt P51452); assay: inhibition constants for human DUSP3 – biochemical, colorimetric, SAR follow-up (AID 2004)
Dual specificity protein phosphatase 3, sequence (P51452 whole entry): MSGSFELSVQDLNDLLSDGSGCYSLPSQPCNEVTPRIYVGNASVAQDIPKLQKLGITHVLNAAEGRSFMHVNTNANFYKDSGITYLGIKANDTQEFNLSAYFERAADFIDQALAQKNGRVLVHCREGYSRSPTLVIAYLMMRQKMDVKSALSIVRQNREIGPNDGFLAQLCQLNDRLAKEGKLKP

Potassium voltage-gated channel subfamily KQT member 2, sequence (O88943 whole entry): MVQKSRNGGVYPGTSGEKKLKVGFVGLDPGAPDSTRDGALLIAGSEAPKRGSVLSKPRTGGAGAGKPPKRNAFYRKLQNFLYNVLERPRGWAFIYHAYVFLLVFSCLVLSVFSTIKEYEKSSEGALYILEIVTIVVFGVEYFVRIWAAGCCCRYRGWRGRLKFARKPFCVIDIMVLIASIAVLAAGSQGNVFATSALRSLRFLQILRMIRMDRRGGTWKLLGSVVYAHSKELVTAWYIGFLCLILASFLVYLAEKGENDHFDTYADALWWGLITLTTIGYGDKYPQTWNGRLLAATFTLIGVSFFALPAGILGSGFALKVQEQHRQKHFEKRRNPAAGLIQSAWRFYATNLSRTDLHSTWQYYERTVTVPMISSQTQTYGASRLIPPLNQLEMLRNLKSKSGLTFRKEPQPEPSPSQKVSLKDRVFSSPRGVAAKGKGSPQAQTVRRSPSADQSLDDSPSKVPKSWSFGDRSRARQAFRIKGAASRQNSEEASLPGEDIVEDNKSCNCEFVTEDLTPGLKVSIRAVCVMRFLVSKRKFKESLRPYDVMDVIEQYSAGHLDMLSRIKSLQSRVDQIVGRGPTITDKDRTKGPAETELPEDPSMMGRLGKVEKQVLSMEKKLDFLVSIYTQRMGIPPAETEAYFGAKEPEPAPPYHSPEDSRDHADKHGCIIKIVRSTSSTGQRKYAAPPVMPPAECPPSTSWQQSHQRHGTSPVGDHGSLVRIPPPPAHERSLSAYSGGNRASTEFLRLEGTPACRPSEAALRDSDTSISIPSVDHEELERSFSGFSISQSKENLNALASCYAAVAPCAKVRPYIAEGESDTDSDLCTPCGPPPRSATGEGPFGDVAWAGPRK

SMILES: O=C(Nc1cccnc1)Nc1cccc(F)c1
- EC50 [1]: 6.28 µM (active)
- IC50 (cells [2]): > 29.9 µM (inactive)
- EC50 [3]: 0.675 µM (active)
- IC50 [4]: 5.05 µM (active)
- EC50 (cells [5]): > 29.9 µM (inactive)

SMILES: Cc1ccccc1OCC(O)CN1CCN(CC(O)COc2ccccc2C)CC1 (centres undefined)
- EC50 [6]: > 35.4 µM (not active)
- IC50 (HEK293 [7]): 12 µM (not active)
- EC50 [8]: > 35.4 µM (not active)

SMILES: Oc1nc2c(s1)C=Nc1ccccc1N2
- EC50 [9]: > 150 µM (not active)
- EC50 [10]: 1.17 µM (active)
- EC50 [11]: < 0.3 µM (active)
- EC50 (Streptococcus): > 150 µM (not active)
- AC50 (HeLa): 71.5 µM (active)

SMILES: COCCOC(=O)C(CC(=O)O)NCc1ccco1 (centres undefined)
- EC50 (HEK293 [12]): > 35.4 µM (not active)
- EC50 [13]: > 55.7 µM (not active)
- EC50 [14]: > 35.4 µM (not active)
- EC50 [15]: > 55.7 µM (not active)
- EC50 [16]: > 35.4 µM (not active)

SMILES: CC(C)=C1C(=O)NN(c2ccccc2)C1=O
- Ki [17]: 71 µM (inactive)
